The source of these data is ChEMBL document CHEMBL1156860, “Synthesis and biological activities of novel indole derivatives as potent and selective PPARgamma modulators” (Bioorg Med Chem Lett, 2010).

Data set [1] addresses T1, Peroxisome proliferator-activated receptor alpha (Homo sapiens, UniProt Q07869).
T1 sequence (Q07869 whole entry): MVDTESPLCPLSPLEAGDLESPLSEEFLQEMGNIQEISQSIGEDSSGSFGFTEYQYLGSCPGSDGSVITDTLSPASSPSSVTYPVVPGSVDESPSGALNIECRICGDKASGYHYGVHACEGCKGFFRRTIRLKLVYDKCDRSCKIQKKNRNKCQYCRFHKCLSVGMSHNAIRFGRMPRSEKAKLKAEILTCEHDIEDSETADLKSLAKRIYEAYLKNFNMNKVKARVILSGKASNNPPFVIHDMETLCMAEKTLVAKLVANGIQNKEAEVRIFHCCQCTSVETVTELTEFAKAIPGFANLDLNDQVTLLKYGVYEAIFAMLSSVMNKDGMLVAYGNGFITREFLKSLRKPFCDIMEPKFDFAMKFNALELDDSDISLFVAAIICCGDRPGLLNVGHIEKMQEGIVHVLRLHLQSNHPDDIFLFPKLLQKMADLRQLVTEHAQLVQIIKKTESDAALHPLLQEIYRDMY
In words: Agonist activity at human PPARalpha expressed in african green monkey CV1 cells by Gal4 transactivation assay. The data set is classed as functional, cell-based, CV-1.

Data set [2] addresses T2, Peroxisome proliferator-activated receptor delta (Homo sapiens, UniProt Q03181).
T2 sequence (Q03181 whole entry): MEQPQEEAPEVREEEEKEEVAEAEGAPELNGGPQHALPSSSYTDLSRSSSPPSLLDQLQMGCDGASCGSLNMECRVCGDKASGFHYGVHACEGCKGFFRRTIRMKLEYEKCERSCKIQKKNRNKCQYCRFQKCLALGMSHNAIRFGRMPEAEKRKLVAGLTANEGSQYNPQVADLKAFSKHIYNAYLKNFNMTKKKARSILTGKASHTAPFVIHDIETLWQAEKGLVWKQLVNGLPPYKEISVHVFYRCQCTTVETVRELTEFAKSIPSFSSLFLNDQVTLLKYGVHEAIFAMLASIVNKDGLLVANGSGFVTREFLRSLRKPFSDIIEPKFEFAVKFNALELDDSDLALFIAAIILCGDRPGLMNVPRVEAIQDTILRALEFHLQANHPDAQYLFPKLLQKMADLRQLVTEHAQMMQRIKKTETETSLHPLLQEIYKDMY
In words: Agonist activity at human PPARdelta expressed in african green monkey CV1 cells by Gal4 transactivation assay. The class given is functional, cell-based, CV-1.

The target of data set [3] is T1, Peroxisome proliferator-activated receptor alpha. In words: Displacement of radiolabeled GW-2433 from human PPARalpha ligand binding domain expressed in Escherichia coli.
Data set [4] concerns the target T2, Peroxisome proliferator-activated receptor delta. Description: Displacement of radiolabeled GW-2433 from human PPARdelta ligand binding domain expressed in Escherichia coli.
For data set [5], the target named is T3, Peroxisome proliferator-activated receptor gamma (Mus musculus, UniProt P37238).
T3 sequence (P37238 whole entry): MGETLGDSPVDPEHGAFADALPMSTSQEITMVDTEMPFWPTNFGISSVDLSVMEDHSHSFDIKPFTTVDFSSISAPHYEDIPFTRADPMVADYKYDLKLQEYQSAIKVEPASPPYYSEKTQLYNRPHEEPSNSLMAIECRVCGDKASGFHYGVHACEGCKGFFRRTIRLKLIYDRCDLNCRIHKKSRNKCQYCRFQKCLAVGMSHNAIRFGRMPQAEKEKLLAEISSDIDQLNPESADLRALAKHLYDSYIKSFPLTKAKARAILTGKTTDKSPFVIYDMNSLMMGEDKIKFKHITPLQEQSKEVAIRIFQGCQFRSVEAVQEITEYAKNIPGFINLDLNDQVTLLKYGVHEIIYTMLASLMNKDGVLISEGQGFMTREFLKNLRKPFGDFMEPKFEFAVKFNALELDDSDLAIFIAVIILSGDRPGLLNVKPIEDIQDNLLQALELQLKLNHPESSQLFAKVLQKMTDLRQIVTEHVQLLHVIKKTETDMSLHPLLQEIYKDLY
In words: Agonist activity at mouse PPARgamma expressed in african green monkey CV1 cells by Gal4 transactivation assay. The class given is functional, cell-based, CV-1.

Data set [6] addresses T4, Peroxisome proliferator-activated receptor alpha (Mus musculus, UniProt P23204).
T4 sequence (P23204 whole entry): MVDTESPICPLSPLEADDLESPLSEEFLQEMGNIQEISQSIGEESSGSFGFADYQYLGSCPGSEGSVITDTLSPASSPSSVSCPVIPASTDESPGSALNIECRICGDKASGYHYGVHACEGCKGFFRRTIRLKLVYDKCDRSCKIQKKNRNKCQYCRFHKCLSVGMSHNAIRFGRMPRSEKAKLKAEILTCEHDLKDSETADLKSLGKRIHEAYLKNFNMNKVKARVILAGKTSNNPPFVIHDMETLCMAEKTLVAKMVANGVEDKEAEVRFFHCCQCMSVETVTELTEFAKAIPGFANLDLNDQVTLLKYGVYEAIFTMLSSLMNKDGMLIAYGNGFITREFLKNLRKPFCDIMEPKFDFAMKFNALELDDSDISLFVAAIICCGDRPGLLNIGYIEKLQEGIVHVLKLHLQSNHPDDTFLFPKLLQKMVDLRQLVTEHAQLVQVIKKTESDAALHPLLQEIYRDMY
Description: Agonist activity at mouse PPARalpha expressed in african green monkey CV1 cells by Gal4 transactivation assay. The data set is classed as functional, cell-based, CV-1.

For data set [7], the target named is T5, Peroxisome proliferator-activated receptor delta (Mus musculus, UniProt P35396).
T5 sequence (P35396 whole entry): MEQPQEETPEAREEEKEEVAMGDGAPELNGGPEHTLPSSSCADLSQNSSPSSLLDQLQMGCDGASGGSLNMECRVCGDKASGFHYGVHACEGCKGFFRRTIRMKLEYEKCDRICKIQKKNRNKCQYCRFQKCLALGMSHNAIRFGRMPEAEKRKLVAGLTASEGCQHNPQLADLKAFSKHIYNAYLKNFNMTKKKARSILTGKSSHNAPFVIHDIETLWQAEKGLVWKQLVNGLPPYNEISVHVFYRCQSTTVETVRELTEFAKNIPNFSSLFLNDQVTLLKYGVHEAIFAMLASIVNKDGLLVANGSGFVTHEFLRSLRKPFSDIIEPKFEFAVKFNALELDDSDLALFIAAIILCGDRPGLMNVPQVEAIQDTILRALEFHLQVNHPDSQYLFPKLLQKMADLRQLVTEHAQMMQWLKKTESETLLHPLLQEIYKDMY
Description: Agonist activity at mouse PPARdelta expressed in african green monkey CV1 cells by Gal4 transactivation assay. The data set is classed as functional, cell-based, CV-1.

For data set [8], the target named is T6, Peroxisome proliferator-activated receptor gamma (Homo sapiens, UniProt P37231).
T6 sequence (P37231 whole entry): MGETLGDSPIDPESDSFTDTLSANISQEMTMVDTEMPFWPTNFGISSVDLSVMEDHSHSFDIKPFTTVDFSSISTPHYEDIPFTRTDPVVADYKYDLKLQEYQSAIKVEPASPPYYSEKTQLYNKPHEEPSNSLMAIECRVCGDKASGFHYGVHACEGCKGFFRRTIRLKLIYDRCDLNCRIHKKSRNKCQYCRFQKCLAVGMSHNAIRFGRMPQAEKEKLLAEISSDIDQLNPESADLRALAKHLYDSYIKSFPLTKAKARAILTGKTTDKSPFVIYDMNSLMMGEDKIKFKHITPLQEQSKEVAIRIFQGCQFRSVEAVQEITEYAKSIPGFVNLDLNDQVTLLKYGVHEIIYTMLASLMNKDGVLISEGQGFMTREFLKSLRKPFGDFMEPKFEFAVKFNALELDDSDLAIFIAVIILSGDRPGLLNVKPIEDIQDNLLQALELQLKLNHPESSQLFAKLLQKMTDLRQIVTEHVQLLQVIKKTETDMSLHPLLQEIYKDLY
Description: Agonist activity at human PPARgamma expressed in african green monkey CV1 cells by Gal4 transactivation assay

The target of data set [9] is T6, Peroxisome proliferator-activated receptor gamma. The source holds these as a separate data set.
Description: Displacement of radiolabeled ((5-{4-[Methyl-pyridin-2yl-amino)-ethoxy]-benzyl}-thiazolidine-2,4-dione) from human PPARgamma ligand binding domain expressed in Escherichia coli
The target in data set [10] is T7, Peroxisome proliferator-activated receptor alpha (Homo sapiens) (UniProt Q07869).
T7 sequence (whole entry): T1 sequence (Q07869 whole entry)
Description: Agonist activity at human PPARalpha expressed in african green monkey CV1 cells by Gal4 transactivation assay relative to SW516. The conditions noted are these: CV-1. The class given is functional, cell-based.

Data set [11] can be described thus: AUC in Zucker fa/fa rat at 5 mg/kg, po. The class given is ADME, organism-based. Also noted: dose 5 mg/kg, route oral. As to conditions: plasma.
Data set [12] relates to Rattus norvegicus. Description: Antidiabetic activity in Zucker fa/fa rat assessed as reduction in plasma glucose level in at 10 mg/kg, po twice a day for 5 days. The data set is classed as functional. On the set-up: scale not given: the % may be the effect or the level left.
Data set [13] concerns Rattus norvegicus. Description: Antidiabetic activity in Zucker fa/fa rat assessed as reduction in triglyceride level in at 10 mg/kg, po twice a day for 5 days. The data set is classed as functional. Also noted: scale not given: the % may be the effect or the level left.
Data set [14] relates to Rattus norvegicus. Description: Antidiabetic activity in Zucker fa/fa rat assessed as reduction in hematocrit level in at 10 mg/kg, po twice a day for 5 days. The class given is functional. On the set-up: scale not given: the % may be the effect or the level left.

A value given as a limit tells only on which side of the number the result lay.

For `CCCc1nc2c(C)cc(-c3nc4ccccc4n3C)cc2n1Cc1ccc(-c2ccccc2C(=O)O)cc1`, the EC50 was more than 10 µM in [1]; more than 10 µM in data set [2]; 4.06 µM in [5]; more than 10 µM in [6]; more than 10 µM in [7]; 2.02 µM in data set [8]. In addition, the IC50 is more than 10 µM in data set [3], more than 10 µM in data set [4] and 12.2 µM in data set [9].

For `CCCc1c(SC)c2ccc(NC(=O)C(CC)c3ccccc3)cc2n1Cc1ccc(-c2ccccc2C(=O)O)cc1` (stereo not given), the EC50 in data set [1] was more than 10 µM; in [8], 0.201 µM. Moreover, the IC50 is more than 10 µM in data set [3], 6.95 µM in data set [4] and 0.49 µM in data set [9].

`CCCc1nc2ccc(C(=O)NC(CC)c3ccccc3)cc2n1Cc1ccc(-c2ccccc2C(=O)O)cc1` (stereo not given): the EC50 was more than 10 µM in data set [1]; more than 10 µM in data set [2]; 1.69 µM in data set [5]; more than 10 µM in data set [6]; more than 10 µM in [7]; 0.9 µM in data set [8].

Consider `CCCc1c(SC)c2cc(NC(=O)C(CC)c3ccccc3)ccc2n1Cc1ccc(-c2ccccc2C(=O)O)cc1` (stereo not given), for which the values for the EC50 in data set [1], in [2] and in data set [8] were more than 10 µM, more than 10 µM and 0.003 µM, respectively. Moreover, the IC50 in [3] was more than 10 µM; in data set [4], more than 10 µM; in [9], 0.036 µM.

For the compound `CCC(NC(=O)c1ccc2cc(C)n(Cc3ccc(-c4ccccc4C(=O)O)cc3)c2c1)c1ccccc1` (stereo not given), the values for the EC50 in data set [1], in data set [2] and in data set [8] were more than 10 µM, more than 10 µM and 0.163 µM, respectively. Further, the IC50 in data set [3] is more than 10 µM; in [4], more than 10 µM; in data set [9], 0.321 µM.

As for `CCC(NC(=O)c1ccc2c(c1)c(SC)c(C)n2Cc1ccc(-c2ccccc2C(=O)O)cc1)c1ccccc1` (stereo not given), the EC50 in [1] was more than 10 µM; in data set [2], more than 10 µM; in [8], 0.001 µM. Further, the IC50 is more than 10 µM in [3], more than 10 µM in data set [4] and 0.012 µM in [9].

Consider `CCC(C(=O)Nc1ccc2c(c1)c(C)c(C)n2Cc1ccc(-c2ccccc2C(=O)O)cc1)c1ccccc1` (stereo not given), for which the EC50 in data set [1] was found to be 6.14 µM; in data set [8], 0.338 µM. For the same compound, the Activity in [10] stood at 45%. Also, the results for the IC50 in data set [3], in data set [4] and in data set [9] were more than 10 µM, more than 10 µM and 0.574 µM, respectively.

Consider `Cc1c(C)n(Cc2ccc(-c3ccccc3C(=O)O)cc2)c2ccc(C(=O)NCCCc3ccccc3)cc12`, for which the results for the 50% effective concentration (EC50) in data set [1], in [2] and in data set [8] were more than 10 µM, more than 10 µM and 0.022 µM, respectively. Further, the results for the IC50 in data set [3], in [4] and in [9] were more than 10 µM, more than 10 µM and 0.018 µM, respectively.

`CCC(NC(=O)c1ccc2c(c1)cc(C)n2Cc1ccc(-c2ccccc2C(=O)O)cc1)c1ccccc1` (stereo not given): the EC50 was 4.96 µM in data set [1], more than 10 µM in data set [2] and 0.017 µM in [8]. In [10], this compound had an Activity of 114%. For the same compound, the IC50 is 7.04 µM in data set [3], more than 10 µM in data set [4] and 0.018 µM in data set [9].

Regarding `CCCc1cc2cc(NC(=O)C(CC)c3ccccc3)ccc2n1Cc1ccc(-c2ccccc2C(=O)O)cc1` (stereo not given), the EC50 is more than 10 µM in [1] and 0.002 µM in [8]. The values for the IC50 in data set [3], in data set [4] and in data set [9] were more than 10 µM, more than 10 µM and 0.26 µM, respectively.

On to `Cc1c(C)n(Cc2ccc(-c3ccccc3C(=O)O)cc2)c2ccc(C(=O)NCc3ccccc3)cc12`, for which the EC50 in [1] and in data set [2] was more than 10 µM throughout. Besides, the IC50 in data set [3] and in data set [4] was more than 10 µM each time.

Regarding `CN(CCOc1ccc(C[C@H](Nc2ccccc2C(=O)c2ccccc2)C(=O)O)cc1)c1ccccn1`, the AUC in data set [11] turned out to be 16500 ng·h/mL. Also, the Activity in the data set with Rattus norvegicus [12] turned out to be 21%; with Rattus norvegicus [13] it was 54%; in the data set on Rattus norvegicus [14] it was 15%.
